Patent publication US20240090503A1, “FUNGICIDAL OXADIAZOLES AND THEIR MIXTURES” (FMC CORPORATION, priority 2020, published 2024)
Where two headings read alike, the source gives them in different places.

What was measured:
[1] = test system: Puccinia recondita f. sp. tritici (the causal agent of wheat leaf rust); experiment: Test C: preventive spray on wheat seedlings, wheat leaf rust, visual disease rating; type: in vivo; settings: Puccinia recondita, 168 h, wheat seedlings; for pest or weed control at 10 ppm: 10 ppm test suspension; for pest or weed control at 10 µg/mL: test suspension 10 ppm, read-out: Test C disease control rating
Procedure, shortened: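 Wheat seedlings sprayed to run-off with compound in acetone/water (50/50) with 250 ppm PEG400, then inoculated with spores the following day. After 24 h saturated humidity at 20° C. and 6 days in growth chamber at 20° C., disease rated visually as % control relative to untreated controls.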

[2] = test system: Phakopsora pachyrhizi (the causal agent of Asian soybean rust); experiment: Test E: compounds alone and mixtures sprayed on soybean seedlings, Asian soybean rust, observed and Colby-expected disease control; type: in vivo
Excerpt: The general protocol for preparing test compositions for TEST E was as follows: Compound 316, Compound 376, Compound 225, Compound 229, Compound 257, Compound 394, Compound 506, Compound 507, Compound 508, Compound 509, Compound 511, Compound 512, methyl N-[[5-[1-[2,6-difluoro-4-(1-methylethyl)phenyl]-1H-pyrazol-3-yl]-2-methylphenyl]methyl]carbamate (b54.11a), methyl N-[[5-[l-(4-cyclopropyl-2,6-difluorophenyl)-1H-pyrazol-3-yl]-2-methylphenyl]methyl]carbamate (b54.11d), ethyl 1-[[4-[[(1Z)-2-ethoxy-3,3,3-trifluoro-1-propen-1-yl]oxy]phenyl]methyl]-1H-pyrazole-4-carboxylate (b54.12a), ethyl 1-[[4-[[2-(trifluoromethyl)-1,3-dioxolan-2-yl]methoxy]phenyl]methyl]-1H-pyrazole-4-carboxylate (b54.13a), azoxystrobin, benzovindiflupyr, bixafen, chlorothalonil, cyproconazole, epoxiconazole, fenpropidin, fenpropimorph, fluindapyr, flutriafol, fluxapyroxad, inpyrfluxam, metominostrobin, picoxystrobin, prothioconazole, pydiflumetofen, pyraclostrobin, tebuconazole and trifloxystrobin were obtained as unformulated, technical-grade materials. Copper hydroxide and mancozeb was obtained as a formulated product marketed under the trademarks KOCIDE 3000 and MANZATE, respectively. Unformulated materials were first dissolved in acetone and then suspended at the desired concentration (in ppm) in acetone and purified water (50/50 mixture by volume) containing 250 ppm of the surfactant Trem® 014 (polyhydric alcohol esters). Formulated materials were dispersed in sufficient water to give the desired concentration, and neither organic solvent nor surfactant was added to the suspension. The resulting test mixtures were then used in TEST E. The tests were run on four individual plants and the results reported as the mean average of the four plants.
The presence of a synergistic effect between two active ingredients can be established with the aid of the Colby equation (see Colby, S. R. “Calculating Synergistic and Antagonistic Responses of Herbicide Combinations”, Weeds, (1967), 15, 20-22):
Using the method of Colby, the presence of a synergistic interaction between two active ingredients is established by first calculating the predicted activity, p, of the mixture based on activities of the two components applied alone. If p is lower than the experimentally established effect, synergism has occurred. In the equation above, A is the fungicidal activity in percentage control of one component applied alone at rate x. The B term is the fungicidal activity in percentage control of the second component applied at rate y. The equation estimates p, the expected fungicidal activity of the mixture of A at rate x with B at rate y if their effects are strictly additive and no interaction has occurred.
The test mixture was sprayed to the point of run-off on soybean seedlings. The following day the seedlings were inoculated with a spore suspension of Phakopsora pachyrhizi (the causal agent of Asian soybean rust) and incubated in a saturated atmosphere at 22° C. for 24 h and then moved to a growth chamber at 22° C. for 8 days, after which time visual disease ratings were made.
Results for Test E are given below in Tables A-1 through K-2. Each table corresponds to a set of evaluations performed together at the same time. In each table, a rating of 100 indicates 100% disease control and a rating of 0 indicates no disease control (relative to the controls). Columns labeled “Obsd” indicate the average of results observed from test run on four individual plants. Columns labeled “Exp” indicate the expected value for each treatment mixture using the Colby equation, as described above.

[3] = test system: Phakopsora pachyrhizi (the causal agent of Asian soybean rust); experiment: Test A: preventive spray on soybean seedlings, Asian soybean rust, visual disease rating; type: in vivo; settings: Phakopsora pachyrhizi, 216 h, soybean seedlings, 100 = 100% disease control, 0 = no control; for pest or weed control at 10 ppm: 10 ppm test suspension; for pest or weed control at 10 µg/mL: test suspension 10 ppm, read-out: Test A disease control rating
Procedure, shortened: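 Compound in acetone/water (50/50) with 250 ppm PEG400 sprayed to run-off on soybean seedlings; inoculated next day with Phakopsora pachyrhizi spores. Held 24 h at 22° C in saturated atmosphere, then 8 days in a 22° C growth chamber before visual rating as % disease control relative to controls.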

[4] = test system: Zymoseptoria tritici (the causal agent of wheat leaf blotch); experiment: Test B: preventive spray on wheat seedlings, wheat leaf blotch, visual disease rating; type: in vivo; settings: Zymoseptoria tritici, 456 h, wheat seedlings; for pest or weed control at 250 ppm: 250 ppm test suspension, 100 = 100% disease control; for pest or weed control at 250 µg/mL: test suspension 250 ppm
Procedure, shortened: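 This is a preventive test: spray application preceded Zymoseptoria tritici spore inoculation by one day. Test suspensions were in acetone/water with 250 ppm PEG400 surfactant, at the listed ppm rate. After 48 h saturated humidity at 24° C and 17 days at 20° C, visual ratings scored control from 0 to 100%.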

[5] = 100 = 100% disease control, 0 = no control
[6] = Phakopsora pachyrhizi, Compound 509 alone, read-out: Test E Obsd
[7] = Phakopsora pachyrhizi, applied alone, read-out: Test E Obsd

Compound: N#CCn1ccc(Cc2ccc(-c3noc(C(F)(F)F)n3)cc2)n1 [Compound 507, 3-[4-[(1-cyanomethyl-1H-pyrazol-3-yl)methyl]phenyl]-5-(trifluoromethyl)-1,2,4-oxadiazole]
- pest or weed control at 10 ppm [1, 5]: 98%
- melting point: 111 to 114 °C
- pest or weed control at 1.823 ppm ([2]; Phakopsora pachyrhizi, applied alone, 1.823 ppm, read-out: Test E Obsd): 74%
- pest or weed control at 10 ppm [3]: 100%

Compound: O=C(NCC(F)(F)F)c1noc(Cc2ccc(-c3noc(C(F)(F)F)n3)cc2)n1 [Compound 506, N-(2,2,2-trifluoroethyl)-5-[[4-[5-(trifluoromethyl)-1,2,4-oxadiazol-3-yl]phenyl]methyl]-1,2,4-oxadiazole-3-carboxamide]
- pest or weed control at 250 ppm ([1]; 250 ppm test suspension, 100 = 100% disease control, 0 = no control): 100%
- melting point: 116 to 120 °C
- pest or weed control at 250 ppm ([3]; 250 ppm test suspension): 100%
- pest or weed control at 250 ppm [4]: 49%

Compound: O=C(NCC(F)(F)F)c1coc(Cc2ccc(-c3noc(C(F)(F)F)n3)cc2)n1 [Compound 316, N-(2,2,2-trifluoroethyl)-2-[[4-[5-(trifluoromethyl)-1,2,4-oxadiazol-3-yl]phenyl]methyl]-4-oxazolecarboxamide]
- pest or weed control at 10 µg/mL [1]: 100%
- melting point: 164 to 168 °C
- pest or weed control at 0.471 ppm ([2]; Phakopsora pachyrhizi, Compound 316 alone, 0.471 ppm, read-out: Test E Obsd): 24%
- pest or weed control at 0.764 ppm ([2]; Phakopsora pachyrhizi, Compound 316 alone, 0.764 ppm, read-out: Test E Obsd): 82%
- pest or weed control at 0.471 ppm ([2]; Phakopsora pachyrhizi, Table A-1, Compound 316 0.471 ppm alone, read-out: Test E Obsd (disease control rating)): 59%
- pest or weed control at 0.764 ppm ([2]; Phakopsora pachyrhizi, Table A-1, Compound 316 0.764 ppm alone, read-out: Test E Obsd (disease control rating)): 75%
- pest or weed control at 0.471 ppm ([2]; Phakopsora pachyrhizi, Table B-1, Compound 316 0.471 ppm alone, read-out: Test E Obsd (disease control rating)): 22%
- pest or weed control at 0.764 ppm ([2]; Phakopsora pachyrhizi, Table B-1, Compound 316 0.764 ppm alone, read-out: Test E Obsd (disease control rating)): 54%
- pest or weed control at 0.471 ppm ([2]; Phakopsora pachyrhizi, Table C-1, Compound 316 0.471 ppm alone, read-out: Test E Obsd (disease control rating)): 49%
- pest or weed control at 0.764 ppm ([2]; Phakopsora pachyrhizi, Table C-1, Compound 316 0.764 ppm alone, read-out: Test E Obsd (disease control rating)): 66%
- pest or weed control at 0.471 ppm ([2]; Phakopsora pachyrhizi, Table D-1, Compound 316 0.471 ppm alone, read-out: Test E Obsd (disease control rating)): 20%
- pest or weed control at 0.764 ppm ([2]; Phakopsora pachyrhizi, Table D-1, Compound 316 0.764 ppm alone, read-out: Test E Obsd (disease control rating)): 70%
- pest or weed control at 0.471 ppm ([2]; Phakopsora pachyrhizi, Table F-1, Compound 316 0.471 ppm alone, read-out: Test E Obsd (disease control rating)): 61%
- pest or weed control at 0.764 ppm ([2]; Phakopsora pachyrhizi, Table F-1, Compound 316 0.764 ppm alone, read-out: Test E Obsd (disease control rating)): 68%
- pest or weed control at 0.471 ppm ([2]; Phakopsora pachyrhizi, Table G-1, Compound 316 0.471 ppm alone, read-out: Test E Obsd (disease control rating)): 31%
- pest or weed control at 0.764 ppm ([2]; Phakopsora pachyrhizi, Table G-1, Compound 316 0.764 ppm alone, read-out: Test E Obsd (disease control rating)): 64%
- pest or weed control at 0.471 ppm ([2]; Phakopsora pachyrhizi, Table H-1, Compound 316 0.471 ppm alone, read-out: Test E Obsd (disease control rating)): 44%
- pest or weed control at 0.764 ppm ([2]; Phakopsora pachyrhizi, Table H-1, Compound 316 0.764 ppm alone, read-out: Test E Obsd (disease control rating)): 80%
- pest or weed control at 0.471 ppm ([2]; Table E-1, Compound 316 0.471 ppm alone, read-out: Test E Obsd (disease control rating)): 61%
- pest or weed control at 0.764 ppm ([2]; Table E-1, Compound 316 0.764 ppm alone, read-out: Test E Obsd (disease control rating)): 58%
- pest or weed control at 10 µg/mL [3]: 100%
- pest or weed control at 250 µg/mL [4]: 5%

Compound: N#CCCNC(=O)c1coc(Cc2ccc(-c3noc(C(F)(F)F)n3)cc2)n1 [Compound 229, N-(2-cyanoethyl)-2-[[4-[5-(trifluoromethyl)-1,2,4-oxadiazol-3-yl]phenyl]methyl]-4-oxazolecarboxamide]
- pest or weed control at 10 µg/mL [1]: 100%
- pest or weed control at 0.964 ppm ([2]; Phakopsora pachyrhizi, applied alone, 0.964 ppm, read-out: Test E Obsd): 59%
- pest or weed control at 1.915 ppm ([2]; Phakopsora pachyrhizi, applied alone, 1.915 ppm, read-out: Test E Obsd): 77%
- pest or weed control at 10 µg/mL [3]: 100%
- pest or weed control at 250 µg/mL [4]: 94%

Compound: N#CCc1cc(Cc2ccc(-c3noc(C(F)(F)F)n3)cc2)on1 [Compound 510, 5-[[4-[5-(trifluoromethyl)-1,2,4-oxadiazol-3-yl]phenyl]methyl]-3-isoxazoleacetonitrile]
- pest or weed control at 10 ppm [1, 5]: 84%
- melting point: 101 to 104 °C
- pest or weed control at 10 ppm [3]: 100%

Compound: O=C(NCC(F)F)c1csc(Cc2ccc(-c3noc(C(F)(F)F)n3)cc2)n1 [Compound 505, N-(2,2-difluoroethyl)-2-[[4-[5-(trifluoromethyl)-1,2,4-oxadiazol-3-yl]phenyl]methyl]-4-thiazolecarboxamide]
- pest or weed control at 10 ppm [1, 5]: 100%
- melting point: 83 to 92 °C
- pest or weed control at 10 ppm [3]: 100%
- pest or weed control at 250 ppm [4]: 100%

Compound: O=C(NCCC(F)(F)F)c1coc(Cc2ccc(-c3noc(C(F)(F)F)n3)cc2)n1 [Compound 330, 2-[[4-[5-(trifluoromethyl)-1,2,4-oxadiazol-3-yl]phenyl]methyl]-N-(3,3,3-trifluoropropyl)-4-oxazolecarboxamide]
- pest or weed control at 10 µg/mL [1]: 100%
- melting point: 104 to 105 °C
- pest or weed control at 10 µg/mL [3]: 100%
- pest or weed control at 250 µg/mL [4]: 96%

Compound: O=C(NCCn1cccn1)c1coc(Cc2ccc(-c3noc(C(F)(F)F)n3)cc2)n1 [Compound 264, N-[2-(1H-pyrazol-1-yl)ethyl]-2-[[4-[5-(trifluoromethyl)-1,2,4-oxadiazol-3-yl]phenyl]methyl]-4-oxazolecarboxamide]
- pest or weed control at 10 µg/mL [1]: 99%
- melting point: 125 to 126 °C
- pest or weed control at 10 µg/mL [3]: 100%
- pest or weed control at 250 µg/mL [4]: 99%

Compound: Cn1nc(C(=O)NCC(F)(F)F)cc1Cc1ccc(-c2noc(C(F)(F)F)n2)cc1 [Compound 509, 1-methyl-N-(2,2,2-trifluoroethyl)-5-[[4-[5-(trifluoromethyl)-1,2,4-oxadiazol-3-yl]phenyl]methyl]-1H-pyrazole-3-carboxamide]
- pest or weed control at 50 ppm ([1]; 50 ppm test suspension, 100 = 100% disease control, 0 = no control): 99%
- melting point: 142 to 142.9 °C
- pest or weed control at 2.796 ppm [2, 6]: 36%
- pest or weed control at 5.625 ppm [2, 6]: 47%
- pest or weed control at 2.796 ppm [2, 7]: 54%
- pest or weed control at 5.625 ppm [2, 7]: 35%
- pest or weed control at 50 ppm ([3]; 50 ppm test suspension): 100%
